Assay results taken from patent US20260306460A1, “COMPOSITION FOR REMOVING AND INHIBITING SENESCENT CELLS, AND USES THEREOF” (LIFECEUTIX CO., LTD., priority 2023, published 2026).

How the values were obtained:
[1] = test system: HMGN1 secreted from senescent cells; assay: HMGN1 secretion (ELISA) from doxorubicin-induced senescent cells, Example 17; type: cell-based, human; settings: senescent untreated = 100%; 30 μM; 90 μM for LX-5211, 5433, 6530, 9105, 9118, 9321, 9602; 2.4 mM for LX-9336
[2] = test system: senescent cells; assay: Viability of senescent cells (CellTiter-Glo), Example 17, Table 13; settings: for Survival (%): doxorubicin-induced senescent cells, 0 μM = 100
Experimental: Cells induced to undergo senescence by doxorubicin treatment were treated with test compound at designated concentrations and measured using the CellTiter-Glo Luminescent Cell Viability Assay (Promega).

[3] = test system: HMGN1 secreted from senescent A549 cells; assay: HMGN1 secretion (ELISA) from senescent A549 cells, Example 18, Table 14; type: cell-based, human; settings: doxorubicin-senescent A549, without test compound (DMSO) = 100%; 30 μM (LX-5211, LX-5433, LX-6530, LX-6800, LX-9105, LX-9118, LX-9131, LX-9136, LX-9302, LX-9321, LX-9565, LX-9602 at 90 μM; LX-9336 at 2.4 mM)
Experimental: On the other hand, in cancer cells treated with doxorubicin, where senescence was induced, the amount of HMGN1 measured under conditions where cells were not treated with the test compound was calculated as 100%, and the amount of HMGN1 was measured under conditions where the senescent cancer cells were treated with the test compound.

[4] = test system: senescent A549 cells; assay: Viability of senescent A549 cells (CellTiter-Glo), Example 18, Table 15; settings: for Survival (%): doxorubicin-induced senescent A549 cells, 0 μM = 100%
Experimental: Senescence-induced cancer cells treated with doxorubicin were treated with the test compound at designated concentrations, and cell viability was measured using the CellTiter-Glo Luminescent Cell Viability Assay (Promega).

[5] = test system: obesity-induced aged C57BL6J mice; assay: Anxiety, depression, lethargy (open field test) in obesity-aged mice, Example 23-4, Table 44; type: in vivo, mouse; settings: obesity-aged mice
Experimental: 15-week-old male C57BL6J mice (The Jackson Laboratory) were induced to obesity by a high-fat diet using the same method as in Example 9-1 WO2023-085787 A1. After acclimation to the experimental environment for one week, the mice were randomly assigned to experimental and control groups. […] LX-3002 was mixed in distilled water with 4% DMSO, 30% PEG300, and 5% Tween80 and administered orally at a concentration of 10 mg/kg daily for 21 days. LX-5701 was mixed in PBS and administered orally at a concentration of 360 mg/kg daily for 21 days. LX-6807 was mixed in saline and administered intraperitoneally at a concentration of 1 mg/kg daily for 21 days. The control group received only the solution in the same volume. After the end of drug administration, the methods described in each example below were performed.
It was determined that anxiety and depression caused by obesity are not causally related to increased body weight, but rather are caused by the accumulation of senescent cells. Accordingly, an activity assessment (open field test) was performed using the same method as in Example 7-7 of WO2023-085787 A1 to analyze lethargy caused by anxiety and depression caused by obesity in mice. The table below quantitatively represents activity, a criterion for assessing lethargy due to anxiety and depression, under conditions in which aging was induced by obesity and the test compound was not administered or was administered. The activity assessment after obesity-induced aging was calculated as 100% and compared with the activity assessment after test compound treatment.

[6] = test system: naturally aged C57BL6J mice; assay: Geriatric depression and anxiety in aged mice, Example 21-8; type: in vivo, mouse; settings: aged mice
Excerpt: The amount of senescent-associated secretory factor (SASP) in serum and tissues collected from mice of Examples 21-5 and 21-6 was reduced by treatment with LX-5701, LX-2101, or LX-2102. It was confirmed that removing senescent cells, which increase with aging in mice, and effectively reducing the amount of senescent-associated secretory factor (SASP) can improve symptoms of geriatric depression and anxiety.

[7] = Homo sapiens, read-out: Survival (%)
[8] = Homo sapiens, A549, read-out: Survival (%)

SMILES	HMGN1 [1] [%]	Survival (%) ([2]; 1.1 μM)	Survival (%) ([2]; 10 μM)	Survival (%) ([2]; 30 μM)	Survival (%) ([2]; […])	HMGN1 [3] [%]	Survival (%) ([4]; 1.1 μM)	Survival (%) ([4]; 10 μM)	Survival (%) ([4]; 30 μM)	Survival (%) ([4]; […])	other results
CC(=O)[O-].CC(=O)[O-].CCc1c(CC)c2cc3nc(cnc4cc(OCCOCCOCCOC)c(OCCOCCOCCOC)cc4ncc4nc(cc1[n-]2)C(CCCO)=C4C)C(C)=C3CCCO.O.[Gd+3] [LX-5211, Motexafin Gadolinium]	253	97.6	92.7	87.1	95.2	262	102.8	88.1	49.2	98.8	Survival (%) ([2]; 90 μM): 22.7%; Survival (%) ([4]; 90 μM): 16.6%
CN1CCc2c(c3ccccc3n2Cc2ccc(C(=O)NO)cc2)C1 [LX-5352, Tubastatin A]	194	87.9	32.4	1.9	61.6	210	97.6	51.8	22.2	87.5	–
CN(CC(=O)Nc1nc2ccc(OC(F)(F)F)cc2s1)C(=O)CNC(=O)CN [LX-6216, Troriluzole]	221	94.5	68.8	24.3	87.5	237	93.8	53.1	14.6	87.5	–
Nc1cc(COc2c(Cl)cc(C[C@H](N)C(=O)O)cc2Cl)c2oc(-c3ccccc3)nc2c1 [LX-6233, Nanvuranlat]	241	83.7	32.7	11.3	61.2	228	91.8	34.5	10.1	72.4	–
Cc1nc(C(=O)NCC(=O)O)c(O)c2ccc(Oc3ccccc3)cc12 [LX-6806, Roxadustat]	–	–	–	–	–	–	–	–	–	–	geriatric depression [5]: similarly improving geriatric depression; viability at 1.1 µM [2, 7]: 95.4%; viability at 10 µM [2, 7]: 61.2%; viability at 30 µM [2, 7]: 32.8%; viability at 1.1 µM [4, 8]: 106%; viability at 10 µM [4, 8]: 67.2%; viability at 30 µM [4, 8]: 23.5%; amount of SASP, p16, SA-β-gal, lipofuscin [6]: reduced; symptoms of geriatric depression and anxiety [6]: improved
O=C1C2=C(CCN(Cc3ccccc3)C2)N2CCN=C2N1Cc1ccc(C(F)(F)F)cc1 [LX-7263]	267	49.2	–	–	0.9	283	53.6	–	–	11.1	–
